Measured values reported in BindingDB's records for patent US12391671 (Dana-Farber Cancer Institute, 2025).

Columns and labels:
Test in all cases: HTRF-Based EGFR Biochemical Assay
[1] = target: Epidermal growth factor receptor [L858R] (Homo sapiens, UniProt P00533, L858R)
Description: (§1) EGFR biochemical activity measurements were carried out using the homogeneous time-resolved fluorescence (HTRF) assay (Cisbio), inhibitors and DMSO normalizations were first dispensed to empty black low-volume 384-well plates (Corning) with 0300 digital liquid dispenser (HP). All reactions were carried out at room temperature and solutions were added to plates with a Multidrop Combi Reagent Dispenser (ThermoFisher). The reaction mixture (10 μL final volume) contained 1 μM tyrosine kinase peptide-biotin substrate and mutant EGFR in a reaction buffer (50 mM HEPES pH 7.0, 5 mM MgCl2, 1 mM MnCl2, 0.01% BSA, 2 mM TCEP, 0.1 mM NaVO4). Enzyme concentrations were adjusted to accommodate varying kinase activities (L858R 0.1 nM, L858R/T790M 0.02 nM). Enzyme reaction solution (2× concentrations, 5 μL) was added to 384-well plates containing compounds and incubated for 30 mins. Enzyme reactions were initiated with the addition of 5 μL of ATP to a final concentration of 100 μM and reacted for 20 mins. Reactions were quenched with the addition of 10 μL of phospho-tyrosine antibody-Europium(III) cryptate (1-to-180 volume ratio) and Streptavidin-XL665 (46.7 nM) in EDTA-containing detection buffer, then incubated at room temperature for 1 hour, and read with a PHERAstar plate reader (excitation=337 nm, emission=620 nm and 665 nm).

[2] = target: Epidermal growth factor receptor [T790M,L858R] (Homo sapiens, UniProt P00533, L858R/T790M)
Epidermal growth factor receptor [T790M,L858R] (Homo sapiens, UniProt P00533, L858R/T790M), sequence (P00533 25-1210 T790M/L858R limits assumed): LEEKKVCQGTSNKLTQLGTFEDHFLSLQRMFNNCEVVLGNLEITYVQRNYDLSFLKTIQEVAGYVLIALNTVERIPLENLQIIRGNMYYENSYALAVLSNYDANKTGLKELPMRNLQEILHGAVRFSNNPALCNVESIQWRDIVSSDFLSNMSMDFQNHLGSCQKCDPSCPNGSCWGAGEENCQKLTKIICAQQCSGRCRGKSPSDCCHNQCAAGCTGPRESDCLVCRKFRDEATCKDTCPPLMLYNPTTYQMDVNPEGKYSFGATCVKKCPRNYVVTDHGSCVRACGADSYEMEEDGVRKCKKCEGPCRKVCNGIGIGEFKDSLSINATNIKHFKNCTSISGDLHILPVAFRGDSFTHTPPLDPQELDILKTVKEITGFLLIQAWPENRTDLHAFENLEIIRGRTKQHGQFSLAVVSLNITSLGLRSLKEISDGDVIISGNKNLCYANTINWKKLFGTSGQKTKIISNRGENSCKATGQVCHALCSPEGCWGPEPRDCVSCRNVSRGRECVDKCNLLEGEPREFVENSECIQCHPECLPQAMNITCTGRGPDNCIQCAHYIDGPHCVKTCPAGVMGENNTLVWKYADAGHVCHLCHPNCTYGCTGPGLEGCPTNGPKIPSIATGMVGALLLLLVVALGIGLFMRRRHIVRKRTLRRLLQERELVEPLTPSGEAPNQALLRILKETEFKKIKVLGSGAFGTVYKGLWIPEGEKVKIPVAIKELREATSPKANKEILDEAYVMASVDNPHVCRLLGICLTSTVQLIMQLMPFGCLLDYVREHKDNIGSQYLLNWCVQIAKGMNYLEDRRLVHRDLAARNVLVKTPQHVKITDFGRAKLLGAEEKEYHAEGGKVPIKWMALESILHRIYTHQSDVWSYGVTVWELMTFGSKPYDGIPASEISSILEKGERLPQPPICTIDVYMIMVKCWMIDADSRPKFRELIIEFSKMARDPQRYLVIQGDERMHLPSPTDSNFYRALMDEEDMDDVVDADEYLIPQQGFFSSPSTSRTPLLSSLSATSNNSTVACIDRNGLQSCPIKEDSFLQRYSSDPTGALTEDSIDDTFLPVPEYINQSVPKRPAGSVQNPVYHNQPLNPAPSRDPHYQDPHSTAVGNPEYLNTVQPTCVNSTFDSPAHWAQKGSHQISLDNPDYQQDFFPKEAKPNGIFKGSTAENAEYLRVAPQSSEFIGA
Description: as §1

[3] = target: Epidermal growth factor receptor [T790M,L858R] (Homo sapiens, UniProt P00533, T790M/L858R)
Epidermal growth factor receptor [T790M,L858R] (Homo sapiens, UniProt P00533, T790M/L858R), sequence (P00533 25-1210 T790M/L858R limits assumed): as above
Description: as §1

Epidermal growth factor receptor [L858R], sequence (P00533 25-1210 L858R limits assumed): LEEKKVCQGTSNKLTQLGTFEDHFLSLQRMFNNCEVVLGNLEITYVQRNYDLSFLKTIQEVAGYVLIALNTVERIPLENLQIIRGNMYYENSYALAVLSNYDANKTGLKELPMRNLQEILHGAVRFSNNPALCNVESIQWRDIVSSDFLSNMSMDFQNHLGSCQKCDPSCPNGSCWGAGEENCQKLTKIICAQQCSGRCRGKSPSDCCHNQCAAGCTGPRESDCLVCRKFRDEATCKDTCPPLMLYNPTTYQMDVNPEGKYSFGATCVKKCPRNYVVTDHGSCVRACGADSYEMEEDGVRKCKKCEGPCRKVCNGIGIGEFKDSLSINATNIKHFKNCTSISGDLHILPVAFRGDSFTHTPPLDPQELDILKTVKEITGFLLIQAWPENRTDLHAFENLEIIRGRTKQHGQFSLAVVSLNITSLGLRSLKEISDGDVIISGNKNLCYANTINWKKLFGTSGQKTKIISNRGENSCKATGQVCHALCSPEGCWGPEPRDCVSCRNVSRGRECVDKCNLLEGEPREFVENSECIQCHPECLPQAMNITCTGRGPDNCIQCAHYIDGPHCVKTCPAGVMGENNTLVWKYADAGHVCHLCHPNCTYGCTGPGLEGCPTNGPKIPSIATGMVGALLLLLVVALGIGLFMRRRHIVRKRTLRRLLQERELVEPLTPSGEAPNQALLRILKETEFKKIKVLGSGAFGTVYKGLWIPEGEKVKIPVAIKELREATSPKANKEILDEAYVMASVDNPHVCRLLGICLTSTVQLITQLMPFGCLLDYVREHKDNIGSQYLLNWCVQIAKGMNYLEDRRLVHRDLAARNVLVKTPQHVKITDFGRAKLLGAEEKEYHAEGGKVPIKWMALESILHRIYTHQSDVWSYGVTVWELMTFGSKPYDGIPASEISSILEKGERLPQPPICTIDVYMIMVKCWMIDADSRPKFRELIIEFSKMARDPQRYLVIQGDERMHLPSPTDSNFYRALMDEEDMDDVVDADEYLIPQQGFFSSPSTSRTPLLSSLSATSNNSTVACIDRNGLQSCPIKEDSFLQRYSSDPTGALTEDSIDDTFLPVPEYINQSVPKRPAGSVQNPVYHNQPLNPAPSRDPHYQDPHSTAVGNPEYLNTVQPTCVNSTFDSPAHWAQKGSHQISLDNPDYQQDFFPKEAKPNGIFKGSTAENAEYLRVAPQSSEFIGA

Row | IC50 [1] [nM] | IC50 [2] [nM] | IC50 [3] [nM] | SMILES
1 | 6 | 2 | – | O=C1c2cc(-c3ccc(N4CCNCC4)cc3)ccc2CN1C(c1nc2ccccc2[nH]1)c1cc(F)ccc1O (stereo not drawn) [US12391671, Compound 021]
2 | 2 | 0.3 | – | CN1CCC(c2ccc(-c3ccc4c(c3F)C(=O)N(C(c3nc5ccccc5[nH]3)c3cc(F)ccc3O)C4)cc2)CC1 (stereo not drawn) [US12391671, Compound 032]
3 | 49 | 73 | – | CN1CCC(c2ccc(-c3ccc4c(c3)C(=O)N(C(c3nc5ccccc5[nH]3)c3cccc(Cl)c3O)C4)cc2)CC1 (stereo not drawn) [US12391671, Compound 043]
4 | 1 | – | 2 | CC1=CNC([C@H](c2cc(F)ccc2O)N2CC3=CC=C(c4ccc(C5CCN(C)CC5)cc4)C(F)C3C2=O)N1 (stereo partly drawn) [US12391671, Compound 094]
